Measured values as given in publication PMC4450297, “Screening Active Compounds from Garcinia Species Native to China Reveals Novel Compounds Targeting the STAT/JAK Signaling Pathway” (BioMed Research International, 2015).

Experiments:
[1] = system: STAT3, ERK, AKT phosphorylation in NCI-H1650 cells; assay: Western blot analysis in NCI-H1650 cells; assay type: cell-based, human; settings: 8 h
Experimental: (§1) Floating and adherent cells were harvested and treated with ice-cold RIPA lysis buffer (50 mM Tris-HCl, pH 7.5, 0.5% cholic acid, 2 mM EDTA, 10% glycerol, 150 mM NaCl, 0.1% SDS, and 1% Triton X-100) containing complete Mini Protease Inhibitor Cocktail (Roche Applied Science, Indianapolis, IN). Proteins were separated by sodium dodecyl sulfate polyacrylamide gel electrophoresis and transferred to nitrocellulose membranes. Membranes were blocked with 5% BSA in washing buffer (100 mM NaCl, 10 mM Tris-HCl, pH 7.5, and 0.1% Tween-20) for 1 hr at room temperature and incubated with the respective primary antibodies in 5% BSA in washing buffer overnight at 4°C with shaking. The membranes were probed with the following antibodies: p44/42 (Cat#9107, CST), phospho-p44/42 (Cat#4370, CST), AKT (Cat#9272, CST), phospho-AKT (ser473) (Cat#9271, CST), STAT3 (Cat#9139, CST), and phospho-STAT3 (Tyr705) (Cat#9131, CST). Membranes were then washed and incubated with anti-mouse or anti-rabbit fluorescent secondary antibodies (LICOR, US) diluted in washing buffer for 1 h at room temperature with shaking. Protein bands were detected using an Odyssey Imaging system (LICOR, US).

[2] = system: phosphorylation of STAT3 upon IL-6 stimulation in HepG2 cells; assay: Western blot, IL-6-stimulated STAT3 activation; assay type: cell-based, human; settings: pretreated 2 h, IL-6 10 ng/mL 15 min
Experimental: as §1

Row | SMILES | Phosphorylation of ERK and AKT [1] | STAT3 expression and its phosphorylation (Tyr705) [1] | phosphorylation of STAT3 upon IL-6 stimulation [2]
1 | CC(C)=CCC[C@@]1(C)C=Cc2c(O)c3c(c(CCC(C)(C)O)c2O1)O[C@]12C(=C[C@@H]4C[C@H]1C(C)(C)O[C@@]2(C/C=C(/C)C(=O)O)C4=O)C3=O [GB39, 33-hydroxyepigambogic acid] | inhibited | inhibited STAT3 expression and its phosphorylation in a dose-dependent manner | efficiently suppressed
2 | CC(C)=CCC[C@@]1(C)C=Cc2c(O)c3c(c(C/C=C(\C)CO)c2O1)O[C@]12C(=C[C@@H]4C[C@H]1C(C)(C)O[C@@]2(C/C=C(/C)C(=O)O)C4=O)C3=O [GB40, 35-hydroxyepigambogic acid] | inhibited | inhibited STAT3 expression and its phosphorylation in a dose-dependent manner | efficiently suppressed
